Results published in patent US11358965B2, “EGFR dimer disruptors and use of the same” (THE REGENTS OF THE UNIVERSITY OF MICHIGAN, priority 2018, dated 2022).
Where a name gives a salt, the structure may show the parent alone.

Assays:
RKO cells = test: Clonogenic IC50, RKO; format: cell-based; conditions: Homo sapiens
cells = test: Cell Titer Blue % cell viable (24 hrs); format: cell-based; conditions: 24 h; for viability at 30 µM: Conc 30 μM; for viability at 15 µM: Conc 15 μM; for viability at 7.5 µM: Conc 7.5 μM
Description: The viability of cells upon treatment was assessed by CellTiter-Blue® reagent following the manufacturer's protocol in RKO, UM10B, UM1, MCR5, and UMCC92 cells. Briefly, 10,000 cells were plated in 96-well plate in quadruplets. One day after seeding, cells were treated with a range of concentrations (0.1 to 30 micromolar). […] Only the viable cells convert the redox dye (reszurin) into a fluorescent product (resofurin). The emission of fluorescence (excitation 560 nm) was measured at […]. The IC50 value was calculated as the mean concentration of compounds required to inhibit cell proliferation as measured by the fluorescence at […] by 50 percent compared to the vehicle-treated controls.

UM1 cells = test: Clonogenic IC50, UM1; format: cell-based
UMCC92 cells = test: Clonogenic IC50, UMCC92; format: cell-based
MCR5 cells = test: Clonogenic IC50, MCR5; format: cell-based
Description: It was determined if the response to Compound 8C correlates with inhibition of EGF-induced dimerization and degradation of EGFR. For this, PC9-AZR cells were treated for 1 hour with 1 μM Compound 8C and an additional 30 minutes with EGF (30 ng/ml) and 30 minutes with disuccinimidyl suberate (DSS, 150 μM) to cross-link interacting proteins. Lysates were prepared and immunoblotted with anti-EGFR antibodies.
The viability of cells upon treatment was assessed by CellTiter-Blue® reagent following the manufacturer's protocol in RKO, UM10B, UM1, MCR5, and UMCC92 cells. Briefly, 10,000 cells were plated in 96-well plate in quadruplets. One day after seeding, cells were treated with a range of concentrations (0.1 to 30 micromolar). 3-days post-treatment, cells were incubated with the CellTiter-Blue® reagent for 4 hr. Only the viable cells convert the redox dye (reszurin) into a fluorescent product (resofurin). The emission of fluorescence (excitation 560 nm) was measured at […]. The IC50 value was calculated as the mean concentration of compounds required to inhibit cell proliferation as measured by the fluorescence at […] by 50 percent compared to the vehicle-treated controls.

UM10B cells = test: Clonogenic IC50, UM10B; format: cell-based
[1] = test system: Ba/F3-AZR cells (L858R+T790M+C797S-EGFR); test: Osimertinib resistant Ba/F3-AZR ascites tumor model; format: in vivo, nude mice; conditions: mouse, in vivo, 30 mg/kg

| Structure (SMILES) | IC50 (RKO cells) [µM] | IC50 (UM1 cells) [µM] | IC50 (UMCC92 cells) [µM] | IC50 (MCR5 cells; MCR5, MCR5) [µM] | IC50 (UM10B cells) [µM] | IC50 (MCR5 cells; MCR5) [µM] | viability at 30 µM (cells) [%] | viability at 15 µM (cells) [%] | viability at 7.5 µM (cells) [%] | survival [1] |
| --- | --- | --- | --- | --- | --- | --- | --- | --- | --- | --- |
| COc1ccc(C2=NC3(CCN(C(=O)OC(C)(C)C)CC3)N(CC(=O)Nc3ccc(OC)c(Cl)c3)C2=O)cc1 [Compound 3, tert-Butyl 4-(2-((3-chloro-4-methoxyphenyl)amino)-2-oxoethyl)-2-(4-methoxyphenyl)-3-oxo-1,4,8-triazaspiro[4.5]dec-1-ene-8-carboxylate] | 9.8 | 7.8 | – | – | – | – | 70 | – | – | – |
| COc1ccc(C2=NC3(CCNCC3)N(CC(=O)Nc3ccc(OC)c(Cl)c3)C2=O)cc1 [Compound 4, N-(3-chloro-4-methoxyphenyl)-2-(3-(4-methoxyphenyl)-2-oxo-1,4,8-triazaspiro[4.5]dec-3-en-1-yl)acetamide hydrochloride] | 7.6 | 1 | – | – | – | – | – | 61 | – | – |
| COc1ccc(C2=NC3(CCN(C)CC3)N(CC(=O)Nc3ccc(OC)c(Cl)c3)C2=O)cc1 [Compound 5, N-(3-chloro-4-methoxyphenyl)-2-(3-(4-methoxyphenyl)-8-methyl-2-oxo-1,4,8-triazaspiro[4.5]dec-3-en-1-yl)acetamide] | 11.6 | 0.9 | 34 | – | – | – | – | 60 | – | – |
| COc1ccc(NC(=O)CSC2=NC3(CCN(C)CC3)N=C2c2ccc(Br)cc2)cn1 [Compound 8A, 2-((3-(4-bromophenyl)-8-methyl-1,4,8-triazaspiro[4.5]deca-1,3-dien-2-yl)thio)-N-(6-methoxypyridin-3-yl)acetamide] | 8.8 | 1 | – | – | – | – | 58 | – | – | – |
| CN1CCC2(CC1)N=C(SCC(=O)Nc1ccc(Cl)nc1)C(c1ccc(Br)cc1)=N2 [Compound 8B, 2-((3-(4-bromophenyl)-8-methyl-1,4,8-triazaspiro[4.5]deca-1,3-dien-2-yl)thio)-N-(6-chloropyridin-3-yl)acetamide] | 5.3 | 0.8 | – | – | – | – | – | 50 | – | – |
| CN1CCC2(CC1)N=C(SCC(=O)Nc1ccncc1)C(c1ccc(Br)cc1)=N2 [Compound 8D, 2-((3-(4-bromophenyl)-8-methyl-1,4,8-triazaspiro[4.5]deca-1,3-dien-2-yl)thio)-N-(pyridin-4-yl)acetamide] | 7.3 | 0.8 | – | – | – | – | – | – | 64 | – |
| CN1CCC2(CC1)N=C(SCC(=O)NC1CCCCC1)C(c1ccc(Br)cc1)=N2 [Compound 8E, 2-((3-(4-bromophenyl)-8-methyl-1,4,8-triazaspiro[4.5]deca-1,3-dien-2-yl)thio)-N-cyclohexylacetamide] | 14.1 | 1.9 | – | – | – | – | 84 | – | – | – |
| CN1CCC2(CC1)N=C(SCC(=O)NC1CCCC1)C(c1ccc(Br)cc1)=N2 [Compound 8F, 2-((3-(4-bromophenyl)-8-methyl-1,4,8-triazaspiro[4.5]deca-1,3-dien-2-yl)thio)-N-cyclopentylacetamide] | 17.4 | 1 | – | – | – | – | 62 | – | – | – |
| CN1CCC2(CC1)N=C(SCC(=O)NCc1ccccc1)C(c1ccc(Br)cc1)=N2 [Compound 8G, N-benzyl-2-((3-(4-bromophenyl)-8-methyl-1,4,8-triazaspiro[4.5]deca-1,3-dien-2-yl)thio)acetamide] | 8.5 | 1.6 | – | – | – | – | 40 | – | – | – |
| COc1ccc(C2=NC3(CCN(C(=O)OC(C)(C)C)CC3)N=C2SCC(=O)Nc2ccc(OC)nc2)cc1 [Compound 10, tert-Butyl 2-(4-methoxyphenyl)-3-((2-((6-methoxypyridin-3-yl)amino)-2-oxoethyl)thio)-1,4,8-triazaspiro[4.5]deca-1,3-diene-8-carboxylate] | 21.8 | 1.7 | – | – | – | – | 81 | – | – | – |
| COc1ccc(C2=NC3(CCNCC3)N=C2SCC(=O)Nc2ccc(OC)nc2)cc1 [Compound 11, 2-((3-(4-methoxyphenyl)-1,4,8-triazaspiro[4.5]deca-1,3-dien-2-yl)thio)-N-(6-methoxypyridin-3-yl)acetamide hydrochloride] | 26 | 1.3 | – | – | – | – | 52 | – | – | – |
| COc1ccc(C2=NC3(CCN(C)CC3)N=C2SCC(=O)Nc2ccc(OC)nc2)cc1 [Compound 12, 2-((3-(4-methoxyphenyl)-8-methyl-1,4,8-triazaspiro[4.5]deca-1,3-dien-2-yl)thio)-N-(6-methoxypyridin-3-yl)acetamide] | 34 | 1.2 | – | – | – | – | 78 | – | – | – |
| COc1ccc(NC(=O)CN2C(=O)C(c3ccc(C(C)(C)C)cc3)=NC2(C)C)cc1Cl [Compound 15] | 50.7 | – | – | 37 | 17.2 | – | 119 | – | – | – |
| COc1ccc(NC(=O)CN2C(=O)C(c3ccc(F)cc3)=NC2(C)C)cc1Cl [Compound 16] | 43.9 | – | – | – | 38 | 1320 | 122 | – | – | – |
| CC1(C)N=C(SCC(=O)Nc2ccc(Cl)c(Cl)c2)C(c2ccc(Cl)c(Cl)c2)=N1 [Compound 18] | 6.7 | – | – | 25.9 | 2.5 | – | 48 | – | – | – |
| COc1cc(NC(=O)CSC2=NC3(CCN(C)CC3)N=C2c2ccc(C)cc2)ccc1Cl [Compound 19] | 3.1 | – | – | 4.1 | 2.6 | – | – | – | 68 | – |
| COc1ccc(C2=NC3(CCN(C)CC3)N=C2SCC(=O)Nc2ccc(OC)c(Cl)c2)cc1 [Compound 20] | 1.8 | – | – | 2.4 | 4 | – | – | 54 | – | – |
| COc1ccc(NC(=O)CSC2=NC3(CCN(C)CC3)N=C2c2ccc(F)cc2)cc1Cl [Compound 21] | 85 | – | – | 0.3 | 4.3 | – | – | 73 | – | – |
| C=CC(=O)Nc1cc(Nc2nccc(-c3cn(C)c4ccccc34)n2)c(OC)cc1N(C)CCN(C)C [osimertinib, reference compound] | – | – | – | – | – | – | – | – | – | no difference |

Further lines, with some results ahead:

| IC50 (RKO cells) [µM] | IC50 (UM1 cells) [µM] | IC50 (UMCC92 cells) [µM] | IC50 (MCR5 cells; MCR5, MCR5) [µM] | IC50 (UM10B cells) [µM] | IC50 (MCR5 cells; MCR5) [µM] | Structure (SMILES) | viability at 30 µM (cells) [%] | viability at 15 µM (cells) [%] | viability at 7.5 µM (cells) [%] | survival [1] |
| --- | --- | --- | --- | --- | --- | --- | --- | --- | --- | --- |
| 0.8 | – | 0.2 | 2.3 | 0.3 | – | COc1ccc(NC(=O)CSC2=NC3(CCN(C)CC3)N=C2c2ccc(C(C)(C)C)cc2)cc1Cl [Compound 22] | – | – | 55 | – |
| 2.2 | – | – | 5.4 | 5.3 | – | Cc1ccc(C2=NC3(CCN(C)CC3)N=C2SCC(=O)Nc2ccc3c(c2)OCCO3)cc1 [Compound 23] | 103 | – | – | – |
| 5.4 | – | – | 7.6 | 4.3 | – | Cc1ccc(C2=NC3(CCN(C)CC3)N=C2SCC(=O)Nc2ccc3c(c2)OCO3)cc1 [Compound 24] | 72 | – | – | – |
| 3.7 | – | 2.1 | 69.3 | 2.6 | – | Cc1ccc(C2=NC3(CCN(C)CC3)N=C2SCC(=O)Nc2ccc(F)c(F)c2)cc1 [Compound 25] | 78 | – | – | – |
| 2.6 | – | – | 1.3 | 1.1 | – | CN1CCC2(CC1)N=C(SCC(=O)Nc1ccc(F)c(F)c1)C(c1ccc(Cl)cc1)=N2 [Compound 26] | 88 | – | – | – |
| 19 | – | – | 4.1 | 8.8 | – | CN1CCC2(CC1)N=C(SCC(=O)Nc1ccc(F)c(F)c1)C(c1ccc(F)cc1)=N2 [Compound 27] | 76 | – | – | – |
| 6.5 | – | – | 1.3 | 1 | – | CN1CCC2(CC1)N=C(SCC(=O)Nc1ccc(F)c(F)c1)C(c1ccc(C(C)(C)C)cc1)=N2 [Compound 28] | – | 15 | – | – |
| 1.4 | – | – | 3.3 | 0.7 | – | CN1CCC2(CC1)N=C(SCC(=O)Nc1ccc(F)c(F)c1)C(c1ccc(Br)cc1)=N2 [Compound 29] | 89 | – | – | – |
| 8 | – | – | 15 | 4 | – | Cc1ccc(C2=NC3(CCCCC3)N=C2SCC(=O)Nc2ccc(F)c(Cl)c2)cc1 [Compound 32] | 104 | – | – | – |
